{
  "source": "patent EP4741383A1",
  "about": "“COMPOUND AND USE THEREOF AS ANTI-CANCER DRUG” (Tyligand Bioscience (Shanghai) Limited, priority 2023, dated 2025)",
  "data": [
    {"system": "A20", "test": "CellTiter-Glo cell proliferation inhibition, A20", "type": "cell-based", "conditions": "A20 (mouse B-cell lymphoma cell line), 72 hours; read-out: Example IC50 (µM) A20", "from_the_text": "This experiment used the CellTiter-Glo® Luminescent Cell Viability Assay kit from Promega to evaluate the inhibitory activity of the disclosed compounds on the proliferation of the following cell lines: 4T1 (mouse breast cancer cell line), A20 (mouse B-cell lymphoma cell line), A2780 (human ovarian cancer cell line), AsPC-1 (pancreatic cancer cell line), B16F10 (mouse melanoma cell line), BT549 (human breast cancer cell line), CT26 (mouse colon cancer cell line), EMT6 (mouse breast cancer cell line), HCT116 (colorectal cancer cell line), Jurket (acute leukemia cell line), KP-4 (pancreatic cancer cell line), LL/2 (mouse lung cancer cell line), MCF7 (breast cancer cell line), […] NCI-H358 (lung cancer cell line), NCI-H727 (gastric cancer cell line), NCI-1944 (lung cancer cell line), Pan 04.03 (pancreatic cancer cell line), SK-BR-3 (breast cancer cell line), THP-1 (leukemia cell line), TOV21G (ovarian cancer cell line), U87MG (glioblastoma cell line), and UM-UC-a (bladder cancer cell line).\nAll cell lines were purchased from Nanjing Kebai Biotechnology Co., Ltd. The following materials were also used in the experiment: RPMI-1640 media (HyClone, catalog number #SH30022.01), McCoy's 5A media (Thermo Fisher, catalog number #16600-082), MCDB 105 media (Sigma, catalog number #117-500), Medium 199 (Thermo Fisher, catalog number #11150-059), MEM media (Thermo Fisher, catalog number #11095-080), DMEM media (HyClone, catalog number #SH30027.01), fetal bovine serum (FBS) (ExCell, catalog number # M4530), Sodium Pyruvate (100Mm) (Thermo Fisher, catalog number #11360-070), and MEM NEAA (100X) (Thermo Fisher). […]\nCells were cultured according to the instructions provided by the cell supplier (Nanjing Kebai Biotechnology Co., Ltd.). […] Suspension or adherent cells were collected, and cell viability was determined using the trypan blue exclusion method, ensuring that cell viability was above 90%. […]", "units": {"IC50": "µM"}, "values": [
      {"smiles": "O=C(Nc1ccc(-c2csc(CO)c2)cc1)C(=O)Nc1ccc(-c2cc3cc(F)c(-c4nnn[nH]4)cc3n2C2CCC2)cc1", "note": "[Example 1]", "IC50": 0.077},
      {"smiles": "CC1(n2c(-c3ccc(NC(=O)C(=O)Nc4ccc(N5CCC6(CCOC6)CC5)cc4)cc3)cc3cc(F)c(-c4nnn[nH]4)cc32)CCC1", "note": "[Example 68]", "IC50": 0.075},
      {"smiles": "O=C(Nc1ccc(-c2cc3cc(F)c(-c4nnn[nH]4)cc3n2C2CCC2)cc1)C(=O)Nc1ccc(N2CCC3(CCC(O)C3)CC2)cc1", "note": "(stereo not drawn) [Example 100]", "IC50": 0.128}
    ]}
  ]
}
